Data set [1] in a line: Phase 1 dose escalation clinical trial of Compound A, oral, in subjects with metastatic uveal melanoma. The data set is classed as in vivo. As to the method: A Phase 1 dose escalation clinical trial of Compound A is conducted. The trial is primarily intended to determine the maximum tolerated dose (MTD) and/or recommended phase 2 dose of the compound when administered orally to subjects with metastatic uveal melanoma (UM).
In this ongoing study, Compound A has been administered at dose levels of 2.5 mg once a day (QD), 5 mg QD, 7.5 mg QD, and 10 mg QD to 17 subjects with metastatic UM. […] In evaluable subjects, myeloid differentiation and reduction in bone marrow and/or peripheral blasts have been observed.

Data set [2] in a line: Population PK model (nonlinear mixed-effects, two-compartment) of oral Compound A patient concentration vs. time data. The format is in vivo, human. As to the method:
A population PK model based on orally administered Compound A dosing data in a total of 10 patients with metastatic uveal melanoma (UM) and advanced hematologic malignancies (e.g., acute myeloid leukemia (AML)) was performed.
Nonlinear mixed-effects models were fitted to concentration vs. time data of FHD-286. Various compartmental models with linear elimination (1-, 2- and 3-compartment), absorption models, structures of omega on clearances, volumes and absorption parameters (diagonal and block) were developed to assess the PK of Compound A.
Overall, a two-compartment model with linear elimination, a zero-order oral absorption, and a lag time of absorption adequately characterized the concentration-time profiles of Compound A.
Exploratory analysis of covariate effects was performed with appropriate plots presenting relationships between the ETAs (e.g., values reflecting the difference between and individual's parameter value and that of the population) of PK parameters to identify any remaining covariate trends. […] Therefore a “Multiple Dose Effect” on CL was included in the model to account for this change over time.
No other covariates were included as part of the model.

Setting [3] is: final population PK model, oral, 10 patients.

For the compound `COC[C@H](NC(=O)c1ccn(S(C)(=O)=O)c1)C(=O)Nc1nc(-c2cccc(N3C[C@@H](C)O[C@@H](C)C3)n2)cs1` [Compound A, N-(1-((4-(6-(2,6-dimethylmorpholino)pyridin-2-yl)thiazol-2-yl)amino)-3-methoxy-1-oxopropan-2-yl)-1-(methylsulfonyl)-1H-pyrrole-3-carboxamide], in data set [1] (in evaluable subjects), the myeloid differentiation entry is given as “observed” and the “reduction in bone marrow and/or peripheral blasts” value is on record as “observed”. The dose limiting toxicity result in data set [1] (one subject at the 7.5 mg QD dose level, improved with a dose hold) was “Grade 3 keratitis”. Further, the “half-life (preliminary PK analysis)” value in data set [1] (oral 2.5, 5, 7.5, 10 mg QD, 17 subjects with metastatic UM, preliminary) was “long”. Also, in data set [1] (oral 2.5-10 mg QD, subjects with metastatic UM, preliminary), the “plasma concentrations of the compound versus dose” value is listed as “increase with increasing dose”. The “change in clearance (CL) over time” value in data set [2] (after multiple doses) is “reduction”. Besides, in data set [2] (setting [3]), the “CL, Estimate” value is given as 4.07 L/h; the “CLp, Estimate” value was 30.6 L/h; the “Tlag, Estimate (lag time of absorption)” value is given as 0.452 h; the “Vc, Estimate” value is on record as 54.6 L. The “Vd, Estimate” value in data set [2] (setting [3]) is listed as 165 L. Moreover, in data set [2] (final population PK model, oral, 10 patients with metastatic UM and advanced hematologic malignancies), the “Dur, Estimate (zero-order oral absorption)” value was 1.77 h.

The values above are taken from patent US20250339441A1, “METHODS OF TREATING CANCER” (FOGHORN THERAPEUTICS INC., priority 2022, published 2025).
